Source: patent US20170321163A1, “ENZYME STABILIZERS” (Henkel AG & Co. KGaA, priority 2014, published 2017)

Tested on: protease
Experiment: Storage stability of protease in detergent formulation, residual proteolytic activity by AAPF-pNA assay
Assay type: biochemical
Conditions: 1% candidate compound, 1% protease in detergent formulation; stored 8 weeks at 30° C.; AAPF-pNA substrate, 25° C., pH 8.6, 410 nm
Description: The storage stability of protease-containing detergents and cleaning agents was tested for use as enzyme stabilizers in the presence of candidate compounds. For this purpose, the candidate compounds were formulated in the presence of up to 1% (w/w) 1,2-propanediol in a detergent or cleaning agent formulation (see Table 2). The protease (1% PUR) was then added to the formulation, and the formulation stored for 8 weeks at 30° C.
In parallel batches, the proteolytic activity of 1% protease was determined in 4% PG (1,2-propanediol), 85% matrix (see Table 1), then, each following incubation with 1% of the candidate compound (specified in w/w; QS 100% with water) determined in half of the batches in the formulation as indicated in Table 1 by the release of the chromophore para-nitroaniline from the succinyl-alanine-alanine-proline-phenylalanine para-nitroanilide substrate (AAPF-pNA; Bachem L-1400). The release of the pNA caused an increase in the absorbance at 410 nm, the progress over time of which is a measure of enzymatic activity. […]
For evaluation, the initial values for the proteolytic activity of the agent in question were compared to the values determined after storage. […] The stabilizing effect of each tested compound is thus measured as a relative percentage increase in the residual protease activity.

CC(=O)[O-].CCn1cc[n+](C)c1 [1-ethyl-3-methylimidazolium acetate]
Relative residual activity after incubation with KV: 122%
